Source: patent US10793543B2, “Selective C-KIT kinase inhibitor” (PRECEDO PHARMACEUTICALS CO., LTD, priority 2016, dated 2020)

What was measured:
[1] = system: Tel-RET-BaF3 cells (RET WT); assay: Cell proliferation, CCK-8, Tel-RET-BaF3; format: cell-based; conditions: Mus musculus, 72 hours
Description: (§1) In addition, in the present example, further uses: mouse P210/BaF3 (stably expressing P210 Bcr-Abl mutant gene), mouse Tel-ABL-BaF3 (stably expressing wild-type ABL kinase), mouse Tel-cKit-BaF3 (stably expressing C-KITwild-type kinase), mouse Tel-cKit/V559D-BaF3 (stably expressing C-KIT V559D mutant kinase), mouse Tel-cKit/V559D/V654A-BaF3 (stably expressing C-KIT V559D/V654A mutant kinase), mouse Tel-cKit/N822K-BaF3 (stably expressing C-KIT N822K mutant kinase), mouse Tel-cKit/V654A-BaF3 (stably expressing C-KIT V654A mutant kinase), mouse Tel-cKit/L567P-BaF3 (stably expressing C-KIT L567P mutant kinase), mouse Tel-cKit/T670I-BaF3 (stably expressing C-KIT T670I mutant kinase), mouse Tel-PDGFRα-BaF3 (stably expressing PDGFRα kinase), mouse Tel-PDGFRβ-BaF3 (stably expressing PDGFRβ kinase), mouse Tel-VEGFR2-BaF3 (stably expressing VEGFR2 kinase), mouse Tel-RET-BaF3 (stably expressing RET kinase). The above cell lines were all constructed by our laboratory according to the following method: the kinase region sequences of human P210 Bcr-Abl, ABL, C-KIT, C-KIT V559D, C-KIT V559D/V654A, C-KIT N822K, C-KIT V654A, C-KIT L567P, C-KIT T670I, PDGFRα, PDGFRβ, VEGFR2, RET were amplified respectively by PCR, inserted respectively into MSCV-Puro vectors harboring N-terminal TEL fragment and/or NPM fragment and/or TPR fragment (Clontech), then the vectors were stably transfected into mouse BaF3 cells by retrovirus methods and growth factor IL-3 was removed, eventually obtaining cell lines that are transferred protein (P210 Bcr-Abl, ABL, C-KIT, C-KIT V559D, C-KIT V559D/V654A, C-KIT N822K, C-KIT V654A, C-KIT L567P, C-KIT T670I, PDGFRα, PDGFRβ, VEGFR2, RET)-dependent.
(§2) The cells were incubated for 72 hours, and then the number of viable cells was quantified with a microplate reader by using CCK-8 Cell Viability Assay Kit (purchased from Bestbio Company, Shanghai, China) (CCK-8 can be reduced by dehydrogenase in living cells to a highly water-soluble yellow formazan product, and the amount of formazan produced is proportional to the number of living cells).

[2] = system: Tel-PDGFRα-BaF3 cells (PDGFRα); assay: Cell proliferation, CCK-8, Tel-PDGFRα-BaF3; format: cell-based; conditions: Mus musculus, 72 hours
Description: as §1, §2

BaF3 cells = assay: Cell proliferation, CCK-8, parental BaF3; format: cell-based; conditions: Mus musculus, 72 hours
Description: (§3) In the present example, the following cells were used: chronic myelogenous leukemia cells K562 (expressing P210 Bcr-Abl mutant gene), human megakaryocytic leukemia cells MEG-01 (expressing P210 Bcr-Abl mutant gene), human peripheral blood basophilic leukemia cells Ku812 (expressing Bcr-Abl mutant gene) (all above cells purchased from ATCC, USA), human gastrointestinal stromal tumor cell lines GIST-T1 cells (expressing wild-type C-KIT gene) (purchased from Cosmo Bio Co., Ltd., Japan), human gastrointestinal stromal tumor cell lines GIST-882 cells (expressing wild-type C-KIT gene) (presented by the Professor Gray Lab, Dana-Farber Cancer Institute, Harvard University, USA), mouse pro-B cells BaF3 (purchased from ATCC, USA).
as §2

[3] = system: Tel-cKit/V559D-BaF3 cells (KIT V559D); assay: Cell proliferation, CCK-8, Tel-cKit/V559D-BaF3; format: cell-based; conditions: Mus musculus, 72 hours
Description: as §1, §2

[4] = system: Tel-cKit/N822K-BaF3 cells (KIT N822K); assay: Cell proliferation, CCK-8, Tel-cKit/N822K-BaF3; format: cell-based; conditions: Mus musculus, 72 hours
Description: as §1, §2

GIST-T1 cells = assay: Cancer cell proliferation, CCK-8, GIST-T1; format: cell-based; conditions: Homo sapiens, GISTT1, GIST-T1, KIT WT, 72 hours
Description: as §3, §2

[5] = system: cells expressing wild-type C-KIT kinase; assay: Cell proliferation, C-KIT cells; format: cell-based; conditions: cells expressing C-KIT kinase, summary of Table 2
Description: as §3, §1, §2

[6] = system: Tel-PDGFRβ-BaF3 cells (PDGFRβ); assay: Cell proliferation, CCK-8, Tel-PDGFRβ-BaF3; format: cell-based; conditions: Mus musculus, 72 hours
Description: as §1, §2

[7] = system: Tel-cKit/V654A-BaF3 cells (KIT V654A); assay: Cell proliferation, CCK-8, Tel-cKit/V654A-BaF3; format: cell-based; conditions: Mus musculus, 72 hours
Description: as §1, §2

[8] = system: Tel-VEGFR2-BaF3 cells (VEGFR2); assay: Cell proliferation, CCK-8, Tel-VEGFR2-BaF3; format: cell-based; conditions: Mus musculus, Tel-VEGFR2-BaF3, VEGFR2, 72 hours
Description: as §1, §2

[9] = system: Tel-cKit-BaF3 cells (KIT WT); assay: Cell proliferation, CCK-8, Tel-cKit-BaF3; format: cell-based; conditions: Mus musculus, 72 hours
Description: as §1, §2

[10] = system: Tel-cKit/L576P-BaF3 cells (KIT L576P); assay: Cell proliferation, CCK-8, Tel-cKit/L576P-BaF3; format: cell-based; conditions: Mus musculus, 72 hours
Description: as §1, §2

GIST-882 cells = assay: Cancer cell proliferation, CCK-8, GIST-882; format: cell-based; conditions: Homo sapiens, GIST882, GIST-882, KIT WT, 72 hours
Description: as §3, §2

[11] = system: Tel-cKit/T670I-BaF3 cells (KIT T670I); assay: Cell proliferation, CCK-8, Tel-cKit/T670I-BaF3; format: cell-based; conditions: Mus musculus, 72 hours
Description: as §1, §2

[12] = Acute toxicity assay in mice, single oral gavage; format: in vivo; conditions: for Number of death (number of death/number of animals in each group): female mice, 7 days observation
Experimental: (§4) 1. 4-6 week-old Bal b/c female mice were purchased from Shanghai SLAC Experimental Animal Co., Ltd., and were raised in a SPF-level laboratory. Drinking water and padding were both subjected to aseptic processing via high-pressure disinfection, and all operations of the mice were conducted under aseptic conditions; 10 healthy mice were selected, and were balanced and randomly divided into 5 groups according to their weights.
2. Specific Information for Administration
Route of administration: oral gavage
Observation period: 7 days.
3. Observation Indicators
Weighing frequency: upon grouping, the day of administration (D0) to the seventh day after administration (D7). Based on the mouse weight on D0 (starting value of 100%), the graph of the relative body weight over time was plotted.
3.2. Clinical Symptoms Observation
Strict observation was carried out within 4 hours after administration, and then observation was carried out twice a day for a total of 7 days. Observation was carried out and abnormal symptoms or phenomena in each of animals were recorded.
The number of animals died in each of dosage groups during the observation period.
Comprehensive determination was performed based on animal mortality, clinical symptoms and body weights.

[13] = system: Tel-cKit/V559D/V654A-BaF3 cells (KIT V559D/V654A); assay: Cell proliferation, CCK-8, Tel-cKit/V559D/V654A-BaF3; format: cell-based; conditions: Mus musculus, 72 hours
Description: as §1, §2

[14] = system: phosphorylation of Bcr-Abl kinase and pathway proteins in K562 cells; assay: Effects on cell signaling pathways (phosphorylation), K562; format: cell-based, human; conditions: K562, 0.1 μM, 2 hours
[15] = system: gastrointestinal stromal tumor cell lines GIST-882; assay: Mouse tumor model of GIST-882 cells; format: in vivo; conditions: GIST-882 model, 100 mg/kg oral daily, Day 21 after administration
Experimental: as §4, with “conditions;” for “conditions; 10 healthy mice were selected, and were balanced and randomly divided into 5 groups according to their weights.”
(§5) 2. About 5×10^6 gastrointestinal stromal tumor cell lines GIST-T1 or GIST-882 (purchased from ATCC) were respectively injected subcutaneously at left side back of all mice at Day 0;
(§6) 5. Mice were sacrificed on Day 36 (for GIST-882 mouse model) or Day 43 (GIST-T1 mouse model) and subcutaneous tumors were taken out and weighed for comparison;
(§7) 6. Tumor tissue specimens were prepared into protein lysate samples for further usage;
(§8) 7. Growth trend of subcutaneous tumors from Day 16 to Day 43 was derived, and tumor volume was calculated as length×width×width/2 mm^3.

[16] = system: gastrointestinal stromal tumor cell lines GIST-T1; assay: Mouse tumor model of GIST-T1 cells; format: in vivo; conditions: 100 mg/kg oral daily, Day 28 after administration
Experimental: as §4, with “conditions;” for “conditions; 10 healthy mice were selected, and were balanced and randomly divided into 5 groups according to their weights.”
as §5, §6, §7, §8

Ku812 cells (Bcr-Abl) = assay: Cancer cell proliferation, CCK-8, Ku812; format: cell-based; conditions: Homo sapiens, KU812, 72 h
Description: as §3, §2

[17] = system: MEG-01 cells (P210 Bcr-Abl); assay: Cancer cell proliferation, CCK-8, MEG-01; format: cell-based; conditions: Homo sapiens, MEG-01, 72 h
Description: as §3, §2

[18] = system: P210/BaF3 cells (P210 Bcr-Abl); assay: Cell proliferation, CCK-8, P210/BaF3; format: cell-based; conditions: Mus musculus, BaF3, 72 h
Description: (§9) In addition, in the present example, further uses: mouse P210/BaF3 (stably expressing P210 Bcr-Abl mutant gene), mouse Tel-ABL-BaF3 (stably expressing wild-type ABL kinase), mouse Tel-cKit-BaF3 (stably expressing C-KITwild-type kinase), mouse Tel-cKit/V559D-BaF3 (stably expressing C-KIT V559D mutant kinase), mouse Tel-cKit/V559D/V654A-BaF3 (stably expressing C-KIT V559D/V654A mutant kinase), mouse Tel-cKit/N822K-BaF3 (stably expressing C-KIT N822K mutant kinase), mouse Tel-cKit/V654A-BaF3 (stably expressing C-KIT V654A mutant kinase), mouse Tel-cKit/L567P-BaF3 (stably expressing C-KIT L567P mutant kinase), mouse Tel-cKit/T670I-BaF3 (stably expressing C-KIT T670I mutant kinase), mouse Tel-PDGFRα-BaF3 (stably expressing PDGFRα kinase), mouse Tel-PDGFRβ-BaF3 (stably expressing PDGFRβ kinase), mouse Tel-VEGFR2-BaF3 (stably expressing VEGFR2 kinase), mouse Tel-RET-BaF3 (stably expressing RET kinase). […]
as §2

[19] = system: K562 cells (P210 Bcr-Abl); assay: Cancer cell proliferation, CCK-8, K562; format: cell-based; conditions: Homo sapiens, K562, 72 h
Description: as §3, §2

[20] = system: Tel-ABL-BaF3 cells (ABL WT); assay: Cell proliferation, CCK-8, Tel-ABL-BaF3; format: cell-based; conditions: Mus musculus, 72 h
Description: as §9, §2

Compound	GI50 [1]	GI50 [2]	GI50 [3]	GI50 [4]	GI50 (GIST-T1 cells)	GI50 [6]	GI50 [7]	GI50 [8]	GI50 [9]	GI50 [10]	GI50 (GIST-882 cells)	GI50 [11]	GI50 [13]	GI50 (BaF3 cells)	GI50 [5]	other results
Cc1ccc(NC(=O)c2ccc(CN3CCN(C)CC3)c(C(F)(F)F)c2)cc1OC1CCN(C(=O)c2ccncc2)CC1 [B]	300 nM	15 nM	20 nM	130 nM	27 nM	40 nM	585 nM	7 nM	170 nM	–	–	–	–	> 10000 nM	< 500 nM	–
Cc1ccc(NC(=O)c2ccc(CN3CCN(C)CC3)c(C(F)(F)F)c2)cc1OC1CCN(C(=O)c2cccnc2)CC1 [Compound A]	390 nM	95 nM	134 nM	378 nM	14 nM	52 nM	2260 nM	17 nM	147 nM	321 nM	67 nM	1010 nM	2450 nM	> 10000 nM	–	Number of death (number of death/number of animals in each group) ([12]; 250 mg/kg single oral gavage): ♀: 0/2; Number of death (number of death/number of animals in each group) ([12]; 500 mg/kg single oral gavage): ♀: 0/2; clinical symptoms ([12]; 1000 mg/kg single oral gavage): started to be quiet and lie down around 40 minutes; mice died ([12]; 1000 mg/kg single oral gavage): 1; Number of death (number of death/number of animals in each group) ([12]; 1000 mg/kg single oral gavage): ♀: 1/2; clinical symptoms ([12]; 2000 mg/kg single oral gavage): gait of mice was unstable; mice died ([12]; 2000 mg/kg single oral gavage): 2; Number of death (number of death/number of animals in each group) ([12]; 2000 mg/kg single oral gavage): ♀: 2/2; proteins in Bcr-Abl signaling pathways upstream and downstream [14]: very strong inhibitory effects
C=CC(=O)N1CCC(Oc2cc(NC(=O)c3ccc(CN4CCN(C)CC4)c(C(F)(F)F)c3)ccc2C)CC1 [Compound C]	490 nM	36 nM	36 nM	380 nM	30 nM	42 nM	401 nM	5 nM	–	–	–	952 nM	–	> 10000 nM	< 500 nM	–

Now from value to compound, other results behind:

GI50 [1]	GI50 [2]	GI50 [3]	GI50 [4]	GI50 (GIST-T1 cells)	GI50 [6]	GI50 [7]	GI50 [8]	GI50 [9]	GI50 [10]	GI50 (GIST-882 cells)	GI50 [11]	GI50 [13]	Compound	GI50 (BaF3 cells)	GI50 [5]	other results
6310 nM	–	39 nM	1290 nM	8 nM	–	2490 nM	> 10000 nM	412 nM	102 nM	14 nM	6670 nM	3000 nM	Cc1ccc(NC(=O)c2ccc(CN3CCN(C)CC3)cc2)cc1Nc1nccc(-c2cccnc2)n1 [imatinib]	> 10000 nM	< 500 nM	tumor inhibition rate [15]: 49%; tumor inhibition rate [16]: 72.4%
2660 nM	32 nM	22 nM	166 nM	6 nM	32 nM	365 nM	5380 nM	47 nM	81 nM	17 nM	2860 nM	648 nM	Cc1cn(-c2cc(NC(=O)c3ccc(C)c(Nc4nccc(-c5cccnc5)n4)c3)cc(C(F)(F)F)c2)cn1 [nilotinib]	> 10000 nM	< 500 nM	GI50 (Ku812 cells (Bcr-Abl)): 1.2 nM; GI50 [17]: 0.4 nM; GI50 [18]: 12.5 nM; GI50 [19]: 3 nM; GI50 [20]: 26 nM
